From patent publication US12297189B2, “Crystalline forms of a 4-pyrimidinesulfamide derivative aprocitentan” (IDORSIA PHARMACEUTICALS LTD, priority 2017, dated 2025)
One block for each compound: values may come before it.

Experiments:
patients with rHT = details: 14 week phase 3 trial; cited from earlier work
[1] = Storage at room temperature of crystalline forms (XRPD, HPLC control); assay type: physicochemical; details: 20-25° C.
Experimental: All XRPD patterns for the solid forms described herein have been obtained as described hereafter. X-ray powder diffraction patterns were collected on a Bruker D8 Advance X-ray diffractometer equipped with a Lynxeye detector operated with CuKα-radiation in reflection mode (coupled two Theta/Theta). Typically, the X-ray tube was run at of 40 kV/40 mA. A step size of 0.02° (2θ) and a step time of 76.8 see over a scanning range of 3-500 in 2θ were applied. The divergence slit was set to fixed 0.3. Powders were slightly pressed into a silicon single crystal sample holder with depth of 0.5 mm and samples were rotated in their own plane during the measurement. Diffraction data are reported using combined Cu Kα1 and Kα2 radiation, without Kα2 stripping. The accuracy of the 2θ values as provided herein is in the range of +/−0.1-0.2° as it is generally the case for conventionally recorded X-ray powder diffraction patterns. A sample of Form A crystals of the COMPOUND (as obtained according to Example 1 above) has been stored at a temperature of 20-25° C. at 92% relative humidity for 2 months. […] The same result was obtained after storage for 8 weeks under the above coditions. […] A sample of Form B crystals of a dichloromethane solvate of the COMPOUND (as obtained according to Example 2 above) has been stored in a closed vial (20 mg of Form B crystals being placed in a closed 4 mL vial) at a temperature of 20-25° C. for about 3 weeks. […] A sample of Form K crystals of a dimethylsulfoxide solvate of the COMPOUND (as obtained according to Example 7 above) has been stored in a closed vial (20 mg of Form K crystals being placed in a closed 4 mL vial) at a temperature of 20-25° C. for about 3 weeks.

[2] = Hygroscopicity by gravimetric vapour sorption (GVS); assay type: physicochemical; details: 25° C., mass change between 40% and 80% RH, first adsorption scan
Experimental: Measurements are performed on a multi sample instrument SPS-100n (Projekt Messtechnik, Ulm, Germany) operated in stepping mode at 25° C. The sample is allowed to equilibrate at 40% RH before starting a pre-defined humidity program (40-0-95-0-95-40% RH, steps of 5% ΔRH and with a maximal equilibration time of 24 hours per step are applied. About 20 to 30 mg of each sample is used.
The mass change between 40% relative humidity and 80% relative humidity in the first adsorption scan is considered.
Form A e.g. as obtained from Example 1 is considered to be non-hygroscopic as determined by gravimetric vapor sorption (GVS) (see FIG. 19).

patients with diabetes = details: cited from earlier work
[3] = test system: conscious, male spontaneaously hypertensive rats; experiment: Acute effects on MAP and HR by telemetry in spontaneously hypertensive rats; assay type: in vivo, rat; details: SHRs, doses 1-300 mg/kg
Experimental: The acute effects of COMPOUND on blood pressure, in particular on mean arterial blood pressure (hereafter “MAP”), and heart rate (hereafter “HR”) were evaluated by means of telemetry in conscious, male spontancaously hypertensive rats (hereafter “SHRs”—see details about this model in Atanur et al., Genome Res. (2010), 20, 791-803). Groups of 4-6 SHRs were used for the vehicle (7.5% gelatin aquous solution) and each dose of COMPOUND tested (1, 3, 10, 30, 100, and 300 mg/kg). Effects of COMPOUND on HR and MAP were calculated for individual animals relative to the 24 h period before administering. The results obtained regarding MAP (maximal MAP decrease observed over 6 consecutive hours) are summarised in FIG. 11 (data are presented as mean±standard error of the mean). […] In contrast to MAP, HR was not affected.

[4] = test system: conscious, male hypertensive deoxycorticosterone acetate salt rats; experiment: Acute effects on MAP and HR by telemetry in DOCA-salt rats; assay type: in vivo, rat; details: doses 0.3-300 mg/kg
Experimental: The acute effects of COMPOUND on blood pressure, in particular on mean arterial blood pressure (hereafter “MAP”), and heart rate (hereafter “HR”) were evaluated by means of telemetry in conscious, male hypertensive deoxycorticosterone acetate salt rats (hereafter “DOCA-salt rats”—see details about this model in Gavras et al., Circ. Res. (1975), 36, 300-309). In the DOCA-salt rats, hypertension is induced by the combination of unilateral nephrectomy, implantation of pellets of the mineralocorticoid analog DOCA, and provision of 1% sodium chloride in drinking water. Groups of 6-11 DOCA-salt rats were used for the vehicle (7.5% gelatin aquous solution) and each dose of COMPOUND tested (0.3, 1, 3, 10, 30, 100, and 300 mg/kg). Effects of COMPOUND on HR and MAP were calculated for individual animals relative to the 24 h period before administering. The results obtained regarding MAP (maximal MAP decrease observed over 6 consecutive hours) are summarised in FIG. 10 (data are presented as mean±standard error of the mean). […] In contrast to MAP, HR was not affected.

[5] = test system: conscious, male hypertensive Dahl salt-sensitive rats; experiment: Acute effects on MAP and HR by telemetry in Dahl salt-sensitive rats; assay type: in vivo, rat; details: Dahl-S rats, doses 0.3-300 mg/kg
Experimental: The acute effects of COMPOUND on blood pressure, in particular on mean arterial blood pressure (hereafter “MAP”), and heart rate (hereafter “HR”) were evaluated by means of telemetry in conscious, male hypertensive Dahl salt-sensitive rats (hereafter “Dahl-S rats”-see details about this model in Rapp, Hypertension (1982), 4, 753-763). Elevated blood pressure is induced in Dahl-S rats by providing 1% sodium chloride in drinking water. Groups of 6-7 Dahl-S rats were used for the vehicle (7.5% gelatin aquous solution) and each dose of COMPOUND tested (0.3, 1, 3, 10, 30, 100, and 300 mg/kg). Effects of COMPOUND on HR and MAP were calculated for individual animals relative to the 24 h period before administering. The results obtained regarding MAP (maximal MAP decrease observed over 6 consecutive hours) are summarised in FIG. 9 (data are presented as mean±standard error of the mean). […] In contrast to MAP, HR was not affected.

[6] = test system: subjects having essential hypertension; details: phase 2 trial, cited from earlier work
[7] = test system: conscious, male hypertensive deoxycorticosterone acetate salt rats; experiment: Chronic effects of repeated oral administration in DOCA-salt rats; assay type: in vivo, rat; details: oral 1, 10 and 100 mg/kg/day for 4 weeks
Experimental: The chronic effects of repeated administrations of doses of 1, 10 and 100 mg/kg/day of COMPOUND, in particular mean arterial blood pressure (hereafter “MAP”), and heart rate (hereafter “HR”), were evaluated in conscious, male hypertensive deoxycorticosterone acetate salt rats (hereafter “DOCA-salt rats”—see details about this model in Gavras et al., Circ. Res. (1975), 36, 300-309). In the DOCA-salt rats, hypertension is induced by the combination of unilateral nephrectomy, implantation of pellets of the mineralocorticoid analog DOCA, and provision of 1% sodium chloride in drinking water. The results of the DOCA-salt rats treated with COMPOUND were compared to those obtained for Wistar rats or for DOCA-salt rats that received only the vehicle (4% gelatin aquous solution). • a) The results obtained regarding MAP are summarised in FIG. 16 wherein each data point is presented as a 24-hour mean. 6 rats were used for each of the 5 test groups (Wistar control rats [bottom line], DOCA-salt control rats [2nd line from top at day 28] and DOCA-salt rats receiving repeated administrations of doses of 1 mg/kg/day [top line at day 28], 10 mg/kg/day [3rd line from top at day 28] and 100 mg/kg/day [4th line from top at day 28] of COMPOUND).

male Wistar rats = experiment: Effect on fluid retention (haematocrit) in Wistar rats; assay type: in vivo, rat; details: single oral dose 1-30 mg/kg, 24 hours after administration
Experimental: A decrease in haematocrit (Hct) or haemoglobin occurs secondary to an increase in plasma volume and can be used as a marker of fluid retention. A single oral dose of aprocitentan (1-30 mg/kg) or vehicle (gelatin) was administered by gavage to male Wistar rats. Twenty-four hours after administration, sublingual blood was sampled under isoflurane-induced anesthesia. Haematocrit was measured using a hematology analyser.

solid form by X-ray powder diffraction after storage ([1]; closed vial, about 3 weeks): transformed into Form A crystals
SMILES: NS(=O)(=O)Nc1ncnc(OCCOc2ncc(Br)cn2)c1-c1ccc(Br)cc1 [Form B, {5-(4-bromo-phenyl)-6-[2-(5-bromo-pyrimidin-2-yloxy)-ethoxy]-pyrimidin-4-yl}-sulfamide]

haematocrit (Hct), marker of fluid retention (male Wistar rats): did not impact on haematocrit
SMILES: NS(=O)(=O)Nc1ncnc(OCCOc2ncc(Br)cn2)c1-c1ccc(Br)cc1 [COMPOUND, {5-(4-bromo-phenyl)-6-[2-(5-bromo-pyrimidin-2-yloxy)-ethoxy]-pyrimidin-4-yl}-sulfamide]
effect on heart rate (HR) [3]: not affected
effect on heart rate (HR) [4]: not affected
effect on heart rate (HR) [5]: not affected
body weight ([6]; at higher doses): increased body weight at higher doses
cases of peripheral edema ([6]; at higher doses): four
control of blood pressure ([6]; essential hypertension, monotherapy): may result in efficacious control of blood pressure
hemoglobin concentration [6]: dose related decrease
effect on DOCA-salt-induced increase in MAP [7]: dose-dependently attenuated the DOCA-salt-induced increase in MAP
effect on heart rate (HR) [7]: without changing HR

More lines, now with the values behind:

SMILES: COc1cc(OC)nc(O[C@H](C(=O)O)C(OC)(c2ccccc2)c2ccccc2)n1 [darusentan]
withdrawal because of adverse events as compared with placebo (patients with rHT): More patients withdrew

SMILES: NS(=O)(=O)Nc1ncnc(OCCOc2ncc(Br)cn2)c1-c1ccc(Br)cc1 [Form A, {5-(4-bromo-phenyl)-6-[2-(5-bromo-pyrimidin-2-yloxy)-ethoxy]-pyrimidin-4-yl}-sulfamide]
solid form by X-ray powder diffraction after storage ([1]; 92% relative humidity, 2 months): still consisting only in Form A crystals
degradation by HPLC control (peak area %) after storage ([1]; 92% relative humidity, 8 weeks): no significant degradation
hygroscopicity (GVS) [2]: non-hygroscopic

SMILES: COc1ccccc1Oc1c(NS(=O)(=O)c2ccc(C)cn2)nc(-c2ccncc2)nc1OC [avosentan]
treatment effect (reduction of proteinuria) (patients with diabetes): showed significant treatment effect
discontinuation of trial medications due to adverse events (patients with diabetes; predominantly fluid overload and congestive heart failure): significantly increased discontinuation

SMILES: NS(=O)(=O)Nc1ncnc(OCCOc2ncc(Br)cn2)c1-c1ccc(Br)cc1 [Form C, {5-(4-bromo-phenyl)-6-[2-(5-bromo-pyrimidin-2-yloxy)-ethoxy]-pyrimidin-4-yl}-sulfamide]
hygroscopicity (GVS) [2]: slightly hygroscopic (increase in mass is less than 2% and equal to or greater than 0.2% mass/mass)
